Measured values from ChEMBL document CHEMBL1201862, “PubChem BioAssay data set” (2004).
Calls of active or inactive are those of the source.

Legend:
Format in all cases: functional
[1] = biological target: T1, Replicative DNA helicase DnaB (Mycobacterium tuberculosis, UniProt P9WMR3); experiment: DnaB intein splicing inhibitors, dose response, biochemical, cell-free fluorescence (AID 449749)
T1 sequence (P9WMR3 whole entry): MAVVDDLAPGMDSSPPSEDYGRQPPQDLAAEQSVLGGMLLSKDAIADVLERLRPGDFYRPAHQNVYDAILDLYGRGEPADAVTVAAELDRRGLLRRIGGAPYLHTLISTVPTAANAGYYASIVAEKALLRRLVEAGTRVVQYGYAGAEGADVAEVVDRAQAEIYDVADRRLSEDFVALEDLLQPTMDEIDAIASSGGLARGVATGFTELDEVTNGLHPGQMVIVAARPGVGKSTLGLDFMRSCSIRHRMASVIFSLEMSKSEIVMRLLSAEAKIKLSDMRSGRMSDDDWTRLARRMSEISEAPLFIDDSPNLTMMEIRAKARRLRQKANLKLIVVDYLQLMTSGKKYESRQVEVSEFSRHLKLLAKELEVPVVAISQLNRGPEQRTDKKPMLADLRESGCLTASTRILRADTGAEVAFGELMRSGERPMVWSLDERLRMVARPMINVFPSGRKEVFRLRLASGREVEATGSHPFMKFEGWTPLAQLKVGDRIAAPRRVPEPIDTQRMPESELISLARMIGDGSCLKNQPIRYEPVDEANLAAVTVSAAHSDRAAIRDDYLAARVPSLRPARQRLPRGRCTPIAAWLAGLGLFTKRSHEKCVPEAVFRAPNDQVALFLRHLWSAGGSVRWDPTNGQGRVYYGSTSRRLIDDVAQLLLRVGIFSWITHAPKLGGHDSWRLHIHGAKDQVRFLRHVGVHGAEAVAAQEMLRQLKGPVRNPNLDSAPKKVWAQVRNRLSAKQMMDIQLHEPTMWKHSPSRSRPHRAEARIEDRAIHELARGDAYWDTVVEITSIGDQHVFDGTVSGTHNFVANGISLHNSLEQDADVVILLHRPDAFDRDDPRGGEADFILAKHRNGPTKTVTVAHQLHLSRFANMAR

Protein RecA = biological target: T2, Protein RecA (Mycobacterium tuberculosis, UniProt P9WHJ3); experiment: Fluorescence Cell-Free Homogeneous Dose Retest to Identify Inhibitors of RecA-Intein Splicing Activity. [Related pubchem assays (depositor defined):AID2097, AID2223, AID489010, AID492950]
T2 sequence (P9WHJ3 whole entry): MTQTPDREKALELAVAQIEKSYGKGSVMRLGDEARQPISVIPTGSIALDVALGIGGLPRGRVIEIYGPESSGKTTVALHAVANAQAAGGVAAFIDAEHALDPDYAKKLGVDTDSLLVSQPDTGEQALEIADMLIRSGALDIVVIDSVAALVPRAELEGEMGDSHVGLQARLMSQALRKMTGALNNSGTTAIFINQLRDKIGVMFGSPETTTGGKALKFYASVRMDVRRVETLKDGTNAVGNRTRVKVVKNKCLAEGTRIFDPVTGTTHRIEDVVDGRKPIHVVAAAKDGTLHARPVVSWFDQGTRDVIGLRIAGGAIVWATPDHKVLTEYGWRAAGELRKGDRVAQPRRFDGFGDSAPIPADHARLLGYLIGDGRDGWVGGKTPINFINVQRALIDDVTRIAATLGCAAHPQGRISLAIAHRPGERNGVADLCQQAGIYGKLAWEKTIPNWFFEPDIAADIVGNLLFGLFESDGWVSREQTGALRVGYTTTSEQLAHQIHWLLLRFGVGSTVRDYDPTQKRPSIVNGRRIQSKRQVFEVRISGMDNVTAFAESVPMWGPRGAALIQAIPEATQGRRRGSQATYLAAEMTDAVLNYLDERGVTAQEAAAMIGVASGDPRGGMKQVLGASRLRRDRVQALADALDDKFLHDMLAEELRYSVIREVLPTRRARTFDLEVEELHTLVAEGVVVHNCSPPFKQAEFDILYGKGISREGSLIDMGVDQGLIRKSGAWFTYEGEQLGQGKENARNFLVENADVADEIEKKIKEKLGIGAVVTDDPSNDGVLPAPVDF

INS1 = experiment: INS-1E survival protection against cytokine death – cell-based, luminescence, retest, dose response (AID 449756); details: Rattus norvegicus;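 also: cell death triggered by IL-1 beta plus TNF-alpha plus IFN-gamma mixture; protective hits raise ATP signal compared with cytokine alone wells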
[2] = biological target: T3, Sentrin-specific protease 6 (Homo sapiens, UniProt Q9GZR1);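 also: Luminescence-based dose-response confirmatory assay of SENP6 inhibition, following up an ultra-high-throughput screen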
T3 sequence (Q9GZR1 whole entry): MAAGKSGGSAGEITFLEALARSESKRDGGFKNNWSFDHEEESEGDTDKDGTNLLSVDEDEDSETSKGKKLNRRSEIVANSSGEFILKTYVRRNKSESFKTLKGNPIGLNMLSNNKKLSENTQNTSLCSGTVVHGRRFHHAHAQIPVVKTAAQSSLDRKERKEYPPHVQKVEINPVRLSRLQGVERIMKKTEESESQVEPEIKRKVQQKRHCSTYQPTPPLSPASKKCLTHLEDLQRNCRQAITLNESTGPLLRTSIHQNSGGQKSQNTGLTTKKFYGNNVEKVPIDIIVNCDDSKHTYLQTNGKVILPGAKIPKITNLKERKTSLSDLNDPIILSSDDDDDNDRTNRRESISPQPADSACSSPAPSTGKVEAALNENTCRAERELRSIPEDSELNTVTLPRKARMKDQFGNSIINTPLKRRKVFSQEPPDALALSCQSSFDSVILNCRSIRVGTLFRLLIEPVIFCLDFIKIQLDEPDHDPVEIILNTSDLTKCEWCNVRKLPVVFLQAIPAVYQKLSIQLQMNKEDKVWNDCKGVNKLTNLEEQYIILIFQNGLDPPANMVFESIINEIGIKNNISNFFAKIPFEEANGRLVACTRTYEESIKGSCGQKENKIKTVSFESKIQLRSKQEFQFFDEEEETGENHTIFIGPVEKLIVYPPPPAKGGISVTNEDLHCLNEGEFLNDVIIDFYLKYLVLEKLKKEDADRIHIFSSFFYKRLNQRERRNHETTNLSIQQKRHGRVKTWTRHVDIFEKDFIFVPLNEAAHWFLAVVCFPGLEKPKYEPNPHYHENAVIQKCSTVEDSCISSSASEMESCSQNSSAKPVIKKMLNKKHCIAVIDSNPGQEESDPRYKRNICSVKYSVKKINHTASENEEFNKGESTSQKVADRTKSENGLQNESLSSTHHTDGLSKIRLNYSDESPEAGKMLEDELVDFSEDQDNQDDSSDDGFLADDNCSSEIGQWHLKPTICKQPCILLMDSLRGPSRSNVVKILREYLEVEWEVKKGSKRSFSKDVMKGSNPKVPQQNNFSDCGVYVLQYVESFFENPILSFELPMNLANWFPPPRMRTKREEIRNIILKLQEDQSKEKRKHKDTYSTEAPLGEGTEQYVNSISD

COc1ccc(NC(=O)/C(Cl)=C(/Cl)[S+]([O-])Cc2ccccc2)cn1 (stereo not given)
active: AC50 [1] 3.35 µM | EC50 (Protein RecA) 3.14 µM | AC50 (INS1) 1.1 µM

Nc1ccc(N2CCCCC2)c2nonc12
active: IC50 [2] 9.43 µM | AC50 [1] 5.14 µM | EC50 (Protein RecA) 2.76 µM

Cc1ccc(S(=O)(=O)/N=C2\C=C(Nc3cccc(C(=O)O)c3)C(=O)c3ccccc32)c(C)c1
active: IC50 [2] 0.819 µM | AC50 [1] 27 µM | EC50 (Protein RecA) 15 µM | AC50 (INS1) 6.82 µM
